Where two headings read alike, the source gives them in different places.
Assays:
[1] = cited from earlier work
banana peel = assay: Protection of chlorophyll in banana peel by compound applied as salt (swab) or gas, then ethylene; assay type: in vivo, Musa paradisiaca L; conditions: for difference between the highest and lowest chlorophyll value of the concentration series: FIG. 3, acetate salts, series 1 to 2.5 times starting at 3 times the gas minimum, 24 hour exposure; for chlorophyll level in banana peels against concentration: FIG. 6A, treated using acetic acid
Method: Untreated mature green bananas (Musa paradisiaca L) from Costa Rica which were ready for market were obtained from the local Farmers Market and were kept at 14.5° C. until use. Bananas were used within 24 hours of arrival. Experiments were conducted at approximately 22-23° C. No damaged fruit were used in the experiments. […] The jars were then vented and ethylene was injected and allowed to stand for a minimum of 15 hours and then allowed to stand at 23° C. until ethylene responses developed. When the effect of the respective salts of the cyclopropenes were assayed, the salt was mixed with the desired amount of water containing Tween 20 as a wetting agent and the acid. Usually 200 μl of water, 20 μl of Tween 20 and 100 μl of 0.1 M acid and the compound dissolved in ether were used. These salts were applied to the banana. The peels were swabbed to spread the mixture and increase the exposed surface area. The bananas were placed in an unsealed 3-liter jar and allowed to stand 24 hours. In the case of the carbonate salt, the compound was exposed to carbon dioxide in water long enough for the salt to form. In this case, the carbonate salt was formed by mixing the compound dissolved in water with CO2. The concentration of CO2 in water at 1 atmosphere and 25° C. is reported to be 0.0338 M (Daniels and Alberty 1955) (See Daniels, F, et al., Physical Chemistry, John Wiley and Sons New York, 200 (1955). […] (See Cotton, et al., Advanced Inorganic Chemistry John Wiley and Sons. New York, 152 (1999). At the end of 24 hours, ethylene was injected and the jars were sealed. After 15 hours exposure, the bananas were removed and observed for several days for the effect of ethylene. An untreated check banana and a similar untreated banana treated with ethylene only were included in each experiment for comparison. For gaseous phase treatment, the compound is applied to bananas by pipetting solution onto filter paper. Filter paper is used to increase surface area in a 3 L jar. The jar is sealed for 24 hours to give enough time to diffuse through plant tissue to the ethylene binding sites. 333 ul/L of ethylene gas is added to the jars. The jars are then resealed for 15 hours. This allows for maximal exposure to ethylene to measure effectiveness of the compounds. Firmness was recorded over a number of days. Disappearance of chlorophyll was determined by extracting chlorophyll from banana peels. Absorbance was measured in a spectrometer. For aqueous phase (salts) treatment, compounds were alternatively tested by mixing the solutions in acid and a detergent. The detergent, Tween 20, was used as a wetting agent. Solutions were then applied at various concentrations to the banana with a cotton swab. Bananas were then sealed in a jar and treated in the same manner as with the gas compound procedures described above. Chlorophyll was determined by the method of Arnon (Arnon, D I (1949) Copper content in isolated chloroplasts. Polyphenoloxidase in Beta vulgaris. Plant Physiology 24:1-15) or by using a reflective chlorophyll meter (Field Scout CM 1000 Spectronic Technologies Inc.). To extract chlorophyll, a measured area of peel was cut from representative areas of the peel and placed in boiling water for 3 minutes. The samples were then removed and blended with acetone. After standing overnight in the dark, they were filtered then concentrated in a hood and chlorophyll determined by the method of Arnon (1949) according to the procedures outlined by Holden (1965). Banana peel samples were cut and mixed with acetone to extract chlorophyll. Samples were made in an ether solution and absorbance measured at 663 nm.

bananas [2] = assay: Minimum amount of cyclopropene as a gas required to protect bananas from ethylene; assay type: in vivo, Musa paradisiaca L; conditions: for minimum concentration required for protection of bananas: 24 hour exposure, compound as a gas; for Minimum Concentration: amount of compound as a gas that would protect bananas by a 24 hour exposure; for minimum protection value: as a gas, restated with FIG. 3
Method: Untreated mature green bananas (Musa paradisiaca L) from Costa Rica which were ready for market were obtained from the local Farmers Market and were kept at 14.5° C. until use. Bananas were used within 24 hours of arrival. Experiments were conducted at approximately 22-23° C. No damaged fruit were used in the experiments. […] The jars were then vented and ethylene was injected and allowed to stand for a minimum of 15 hours and then allowed to stand at 23° C. until ethylene responses developed. For gaseous phase treatment, the compound is applied to bananas by pipetting solution onto filter paper. Filter paper is used to increase surface area in a 3 L jar. The jar is sealed for 24 hours to give enough time to diffuse through plant tissue to the ethylene binding sites. 333 ul/L of ethylene gas is added to the jars. The jars are then resealed for 15 hours. This allows for maximal exposure to ethylene to measure effectiveness of the compounds. Firmness was recorded over a number of days. Disappearance of chlorophyll was determined by extracting chlorophyll from banana peels. Absorbance was measured in a spectrometer. The minimum amount of cyclopropene necessary to protect bananas from ethylene was determined after the bananas had been exposed to the compound for 24 hours. Following this time, the fruits were vented for 10 minutes and then exposed to 333 ? l^-I of ethylene gas treatment. This has been the procedure for most other studies involving cyclopropene compounds and bananas. This time was used so that a reasonable comparison could be made with previous work ([…]. et al. 1996 a; 1996b; 1999; 2001; 2003). (See […]., et al., Effect of 1-methylcyclopropene, and methylenecyclopropene on ethylene binding and ethylene action in cut carnations, Plant Growth Reg., 18, 79-86, (1996a); […]., et al., The effect of chemical structure on the antagonism by cyclopropenes of ethylene responses in banana, Plant Growth Reg., 33, 107-110 (2001); […]., et al., 1-Substituted cyclopropenes: Effective blocking agents for ethylene action in plants, Plant Growth Reg. 40, 221-228 (2003)).

bananas [3] = assay: Time of protection of bananas against ethylene; assay type: in vivo, Musa paradisiaca L
Method: Untreated mature green bananas (Musa paradisiaca L) from Costa Rica which were ready for market were obtained from the local Farmers Market and were kept at 14.5° C. until use. Bananas were used within 24 hours of arrival. Experiments were conducted at approximately 22-23° C. No damaged fruit were used in the experiments. Bananas were treated to an amount of compound believed to saturate the receptor sites (10 times the minimum amount for protection). The bananas were exposed for 24 hours then vented. They were kept on a laboratory bench and each day a sample was exposed to ethylene. The day the bananas were treated with ethylene and the day the bananas turned yellow and became soft were recorded. Generally, this observation occurred about 3 days after the ethylene treatment day. The treatment day the bananas first ripened was considered to be the time of protection.

bananas [4] = assay: Stability of the compound after 1 hour incubation with acids or salts at different pH, read by banana chlorophyll; assay type: physicochemical, Musa paradisiaca L; conditions: for Chlorophyll (% of control): readings at 7 days
Method: Chlorophyll was determined by the method of Arnon (Arnon, D I (1949) Copper content in isolated chloroplasts. Polyphenoloxidase in Beta vulgaris. Plant Physiology 24:1-15) or by using a reflective chlorophyll meter (Field Scout CM 1000 Spectronic Technologies Inc.). To extract chlorophyll, a measured area of peel was cut from representative areas of the peel and placed in boiling water for 3 minutes. The samples were then removed and blended with acetone. After standing overnight in the dark, they were filtered then concentrated in a hood and chlorophyll determined by the method of Arnon (1949) according to the procedures outlined by Holden (1965).
However, these compounds are thought to be unstable under very acidic conditions. Liao et al. in some synthetic procedures lower the pH to 1-3.

Petunia hybridia = assay: Protection of petunia flowers against ethylene; assay type: in vivo; conditions: 100 nl, gas or carbonate salt form, ethylene 24 hours, at 5 days, FIG. 8
Method: FIG. 8. Protection of flowers (Petunia hybridia) by N,N-dipropyl(1-cyclopropenylmethyl)amine (100 nl) as a gas or as the carbonate salt. Treatment included check (control), ethylene, gas form, salt form of N,N-dipropyl(1-cyclopropenylmethyl)amine, from left to right. All except check were subjected to ethylene for 24 hours.
In experiments to study effects of the compounds described herein on the ethylene response in flowering plants, the petunia (Petunia hybridia), a well known ethylene sensitive flower, and the dandelion (Krigia dandelion) were used in the experiments.
FIGS. 7 and 8 present the results of using 100 nl N,N-dipropyl(1-cyclopropenylmethyl)amine on dandelions and petunias, respectively. The Krigia dandelion is commonly known as a weed that can be found along roads during particular times of the year such as spring and summer. It is of interest because ethylene can cause the plant to become dormant and, as a defense mechanism, the plant can become dormant when there is drought. […] The petunia is a well-known ethylene sensitive flower.

[5] = 24 hour exposure at 10 times the minimum amount, daily ethylene challenge

For O=C(O)O [carbonic acid], the pKa ([1]; corrected for the equilibrium (Cotton et al. 1999)) is given as 3.58 and the pKa ([1]; usually published value) is given as 6.38.

In the case of CN(C)CC1=CC1 [N,N--Dimethyl (1-Cyclopropenylmethyl)amine], the “difference between the highest and lowest chlorophyll value of the concentration series” value (banana peel) is reported as 30.9 % of the control, the “chlorophyll level in banana peels against concentration” value (banana peel) is reported as “ascending concentrations to have increasingly higher chlorophyll levels” and the “minimum concentration required for protection of bananas” value (“minimum concentration required” below) (bananas [2]) is reported as 73 nl l^−I. For the same molecule, the “Minimum Concentration” value (bananas [2]) was 73 nl/l, the minimum protection value (bananas [2]) was 73 nl l^−1 and the protection time (bananas [3]) was 34 days. The “protection time” value (bananas [3]; [5]) was 34 days.

With CCCCN(CCCC)CC1=CC1 [N,N--Dibutyl (1-Cyclopropenylmethyl)amine] the “Chlorophyll (% of control)” value (bananas [4]; Gas control, bananas exposed as a gas 24 hours then ethylene 15 hours) was 100 % of control, the “inactivation by acids or salts” value (bananas [4]; different pH values down to pH 1.5 for 1 hour, re-isolated and used in the usual treatments) was “little or no inactivation occurred” and the “Chlorophyll (% of control)” value (bananas [4]; incubated 1 hour in H2O, neutralized, ether extract applied as a gas 24 hours, ethylene 15 hours) was 98 % of control. For the same molecule, the “Chlorophyll (% of control)” value (bananas [4]; incubated 1 hour in phosphoric acid (.1M, pH 1.5)) was 98 % of control, the “Chlorophyll (% of control)” value (bananas [4]; incubated 1 hour in sodium acetate (0.1M, pH 4.75)) was 100 % of control and the “Chlorophyll (% of control)” value (bananas [4]; incubated 1 hour in sodium formate (0.1M, pH 3.0)) was 100 % of control. The “rapidity of receptor inactivation relative to the dimethyl compound” value (banana peel; FIG. 3, 24 hour exposure) was 1.55 ×, the “difference between the highest and lowest chlorophyll value of the concentration series” value (banana peel) was 48 % of the control and the “protection of bananas compared with the dimethyl compound” value (banana peel; FIG. 5, aqueous phase, swabbed onto the top half, four days after exposure to ethylene gas) was “less protection”. The “chlorophyll level in banana peels against concentration” value (banana peel) was “ascending concentrations to have increasing levels of chlorophyll”, the “minimum concentration required” value (bananas [2]) was 184 nl l^−I and the “Minimum Concentration” value (bananas [2]) was 184 nl/l. For the same molecule, the minimum protection value (bananas [2]) was 184 nl l^−1, the protection time (bananas [3]) was 33 days and the “protection time” value (bananas [3]; [5]) was 33 days.

For CCN(CC)CC1=CC1 [N,N--Diethyl (1-Cyclopropenylmethyl)amine], the “minimum concentration required” value (bananas [2]) was 59 nl l^−I, the “Minimum Concentration” value (bananas [2]) was 59 nl/l and the protection time (bananas [3]) was 32 days. The “protection time” value (bananas [3]; [5]) was 32 days.

For O=C=O [CO2, carbon dioxide], the concentration in water ([1]; 1 atmosphere and 25° C. (Daniels and Alberty 1955)) is listed as 0.0338 M.

For CCCN(CCC)CC1=CC1 [N,N--Dipropyl (1-Cyclopropenylmethyl)amine], the “effect on petunia flowers exposed to ethylene” value (Petunia hybridia) was “appears to withstand the ethylene response”, the “ethylene response of bananas after gas exposure” value (banana peel; FIG. 4, gaseous phase, 10 and 15 μL, after seven days) was “had already begun showing an ethylene response” and the “Chlorophyll (% of control)” value (banana peel; acetic acid + 50 μl, 24 hours, ethylene (300 μl/l) 15 hours, 5 days after ethylene) was 43 % of Control. For the same molecule, the “Chlorophyll (% of control)” value (banana peel; acetic acid + 200 μl, 24 hours, ethylene (300 μl/l) 15 hours, 5 days after ethylene) was 46 % of Control, the “Chlorophyll (% of control)” value (banana peel; applied as gas, ethylene 15 hours, readings at 5 days) was 100 % of control and the “effectiveness of the carbonate salt compared with other acids” value (banana peel; banana peel, Table 4) was “as effective as the other acids”. For the same molecule, the “Chlorophyll (% of control)” value (banana peel; carbonic + 50 μl, 24 hours, ethylene (300 μl/l) 15 hours, 5 days after ethylene) was 47 % of Control, the “Chlorophyll (% of control)” value (banana peel; carbonic acid + 200 μl, 24 hours, ethylene (300 μl/l) 15 hours, 5 days after ethylene) was 48 % of Control and the “Chlorophyll (% of control)” value (banana peel; salt with 0.1 M acetic acid buffer (pH 4.75), swab to ½ banana, 24 hours, ethylene 15 hours, readings at 5 days) was 33 % of control. The “Chlorophyll (% of control)” value (banana peel; salt with 0.1 M acetic acid, swab to ½ banana, 24 hours, ethylene 15 hours, readings at 5 days) was 31 % of control, the “Chlorophyll (% of control)” value (banana peel; salt with 0.1 M formic acid, swab to ½ banana, 24 hours, ethylene 15 hours, readings at 5 days) was 30 % of control and the “Chlorophyll (% of control)” value (banana peel; salt with phosphoric acid (pH 1.5), swab to ½ banana, 24 hours, ethylene 15 hours, readings at 5 days) was 30 % of control. The “minimum concentration required” value (bananas [2]) was 30 nl l^−I, the “Minimum Concentration” value (bananas [2]) was 30 nl/l and the protection time (bananas [3]) was 33 days. For the same molecule, the “protection time” value (bananas [3]; [5]) was 33 days.

In the case of C1=C(CNCC2=CC2)C1, the “minimum concentration required” value (bananas [2]) is reported as 5.3 nl l^−I, the “Minimum Concentration” value (bananas [2]) is reported as 5.7 nl/l and the protection time (bananas [3]) is reported as 33 days. The “protection time” value (bananas [3]; [5]) was 33 days.

For N-(1-methylcyclopropene)-aniline, the “minimum concentration required” value (bananas [2]) was 248 nl l^−I, the “Minimum Concentration” value (bananas [2]) was 248 nl/l and the protection time (bananas [3]) was 32 days. For the same molecule, the “protection time” value (bananas [3]; [5]) was 32 days.
